Drawing on US11021469B2, “Indoline sulfonamide inhibitors of DapE and NDM-1 and use of the same” (priority 2014, dated 2021), this text covers inhibition for three compounds.

The target in this experiment is NDM-1 (Klebsiella pneumoniae, UniProt C7C422). Description: Inhibition of NDM-1 assay (CHROMACEF hydrolysis). The experiment is classed as biochemical. The settings on record: pH 7, read-out: % NMD-1 Inhibition (5 μM). How it is done: The ability of the compounds described herein to inhibit NDM-1 was determined in the following way.
Chain of NDM-1 (C7C422 36-270 limits assumed): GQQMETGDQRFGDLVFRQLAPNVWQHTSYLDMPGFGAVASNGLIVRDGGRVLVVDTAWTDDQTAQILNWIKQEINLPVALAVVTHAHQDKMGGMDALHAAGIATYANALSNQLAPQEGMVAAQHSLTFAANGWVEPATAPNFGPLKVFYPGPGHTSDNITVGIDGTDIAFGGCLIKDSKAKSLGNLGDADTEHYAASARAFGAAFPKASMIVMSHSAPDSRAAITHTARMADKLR
A Substrate Working Solution was prepared from CRHROMACEF (6 μM) and Tween-20 (0.02% v/v) in water. An Enzyme Working Solution was prepared with NDM-1 (0.5 μg/mL), Hepes (0.1 M), pH 7 and Tween-20 (0.02% v/v). An Inhibitor Working Solution was prepared from 50 mM of the inhibitor in DMSO. The final assay conditions were 1 mL, Hepes (50 mM), pH 7, Tween-20 (0.02% v/v), CHROMACEF (3 uM), Δ35 NDM-1 (0.25 μg/mL). Extra zinc was omitted from these assays because extra ZnSO4 interferes with the metal binding groups in inhibitors.
An aliquot of the Inhibitor Working Solution was added to a polystyrene disposable cuvette to achieve a final concentration of 0-50 μM (in 1 mL final). Supplemental DMSO was added to reach a final volume of 4 μL. NDM-1 Working Solution (0.05 mL) was added to the cuvette and the inhibitor and enzyme were allowed to incubate for about 20 minutes. The reaction was initiated by added 0.5 mL Substrate Working Solution. The solution was mixed quickly, but gently to avoid bubble formation. CHROMACEF […] was recorded to start the reaction. The reaction was mixed fast, but gently. The change in absorbance ΔAbs442nm/min was measured for each inhibitor from the linear slope from each inhibitor concentration.
By inhibition is commonly meant the relative decrease from the control value, in per cent. On to `CC(=O)N1CCc2cc(Br)cc(S(=O)(=O)NCCC(C)C)c21`, for which the inhibition at 5 µM stood at 62.7%. `CCNS(=O)(=O)c1cc(Br)cc2c1N(C(C)=O)CC2`: the inhibition at 5 µM stood at 16.8%. With `CC(=O)N1CCc2cc(Br)cc(S(=O)(=O)NCc3ccccc3)c21`, the inhibition at 5 µM worked out at 27.3%.
